Source: patent publication US11415579B2, “Assay for measuring a rate of reaction between a target and a ligand candidate” (Imperial College Innovations Ltd., priority 2016, dated 2022)

Columns and labels:
Cdk2(S276C) (C177A) = target: T1, Cdk2(S276C) (C177A) (Homo sapiens, UniProt P24941, C177A/S276C); test: Kinetic thiol consumption assay with Cdk2 mutant S276C; type: binding; set-up: key to Rate enhancement, Cdk2 S276C: rate constant with Cdk2 ÷ rate constant with model thiol (fold); details: additional mutation C177A; for Rate constant with Cdk2 S276C: Protein: Cdk2, cysteine position S276C, in h^-1
T1 construct: poly-histidine; made in house; host or cells: E. coli
Procedure: (§1) To wells containing 150 μL thiol (Cdk2 or model thiol) (5 μM) in degassed phosphate buffer (pH 8) was added immobilized TCEP beads (2% v/v).
(§2) After incubation of the fluorescence plates for 1 hour at room temperature, fluorescence measurements (excitation/emission of 380/470 nm) were taken on a PerkinElmer EnVision multilabel plate reader and processed with EnVision Workstation version 1.12.
(§3) Fluorescence measurements were normalized against a DMSO/thiol only control and plotted against time.
(§4) Rate constants were calculated using GraphPad software Prism version 6 by fitting a first order exponential decay to the data. The rate constant for each acrylamide with Cdk2 was divided by the rate constant for that fragment with the model thiol to provide the rate enhancement for each ligand candidate.
(§5) A further set of set of additional Cdk2 mutants were screened, all containing the C177A mutation and therefore with only one cysteine on the surface: • F80C (without the K278C mutation) • H71C • S276C • N272 • T182C • R122C • S181C
(§6) Mutations were introduced by site-directed mutagenesis and the resulting cDNA was cloned into the pRSETA bacterial expression vector to generate a poly-histidine tagged Cdk2 fusion that was purified from E. coli using standard techniques.

Cdk2(N272C) (C177A) = target: T2, Cdk2(N272C) (C177A) (Homo sapiens, UniProt P24941, C177A/N272C); test: Kinetic thiol consumption assay with Cdk2 mutant N272C; type: binding; set-up: key to Rate enhancement, Cdk2 N272: rate constant with Cdk2 ÷ rate constant with model thiol (fold); details: for Rate enhancement, Cdk2 N272: Cdk2 N272, additional mutation C177A; for Rate constant with Cdk2 N272C: Protein: Cdk2, cysteine position N272C, additional mutation C177A, in h^-1
T2 construct: poly-histidine; made in house; host or cells: E. coli
Procedure: as §1, §2, §3, §4, §5, §6

Cdk2(S181C) (C177A) = target: T3, Cdk2(S181C) (C177A) (Homo sapiens, UniProt P24941, C177A/S181C); test: Kinetic thiol consumption assay with Cdk2 mutant S181C; type: binding; set-up: key to Rate enhancement, Cdk2 S181C: rate constant with Cdk2 ÷ rate constant with model thiol (fold); details: additional mutation C177A; for Rate constant with Cdk2 S181C: Protein: Cdk2, cysteine position S181C, in h^-1
T3 construct: poly-histidine; made in house; host or cells: E. coli
Procedure: as §1, §2, §3, §4, §5, §6

Cdk2(C177A, F80C) = target: T4, Cdk2(C177A, F80C) (Homo sapiens, UniProt P24941, C177A/F80C); test: Kinetic thiol consumption assay with Cdk2 mutant F80C, incl. kobs versus concentration (Kd, k2); type: binding; set-up: key to Rate enhancement, Cdk2 F80C: Cdk2 rate constant divided by model-thiol rate constant; details: additional mutation C177A; for Rate constant with Cdk2 F80C: Protein: Cdk2, cysteine position F80C, in h^-1
T4 construct: poly-histidine; made in house; host or cells: E. coli
Procedure: Therefore the assay can be used to calculate both k2 and Kd by experimentally determining kobs at a suitable range of ligand candidate concentrations. Typically Kd and k2 would then be determined by fitting a hyperbolic curve to a plot of kobs against ligand candidate concentration (FIG. 9).
as §1, §2, §3, §4, §5, §6
Rate constants were calculated as described in the methodology section of Examples 1 and 2.

Cdk2(R122C) (C177A) = target: T5, Cdk2(R122C) (C177A) (Homo sapiens, UniProt P24941, C177A/R122C); test: Kinetic thiol consumption assay with Cdk2 mutant R122C; type: binding; set-up: key to Rate enhancement, Cdk2 R122C: rate constant with Cdk2 ÷ rate constant with model thiol (fold); details: additional mutation C177A; for Rate constant with Cdk2 R122C: Protein: Cdk2, cysteine position R122C, in h-1
T5 construct: poly-histidine; made in house; host or cells: E. coli
Procedure: as §1, §2, §3, §4, §5, §6

Cdk2(T182C) (C177A) = target: T6, Cdk2(T182C) (C177A) (Homo sapiens, UniProt P24941, C177A/T182C); test: Kinetic thiol consumption assay with Cdk2 mutant T182C; type: binding; set-up: key to Rate enhancement, Cdk2 T182C: rate constant with Cdk2 ÷ rate constant with model thiol (fold); details: additional mutation C177A; for Rate constant with Cdk2 T182C: Protein: Cdk2, cysteine position T182C, in h^-1
T6 construct: poly-histidine; made in house; host or cells: E. coli
Procedure: as §1, §2, §3, §4, §5, §6

[1] = Kinetic thiol consumption assay with model thiol glutathione; type: physicochemical; set-up: Rate constant with glutathione (k(GSH)): unit not given here; details: for Rate constant with Glutathione: Protein: Glutathione, cysteine position NA, in h-1; for Rate constant with glutathione (k(GSH)): 500 μM ligand, 5 μM thiol, phosphate buffer pH 8
Procedure: (§7) A library of 120 acrylamides was screened against a) human cyclin-dependent kinase 2 (Cdk2, which contains one surface exposed cysteine residue—C177), prepared by cloning cDNA into the pRSETA bacterial expression vector to generate a poly-histidine tagged Cdk2 fusion that was purified from E. coli using standard techniques, and b) a model thiol (specific details are given below). The structures of these 120 acrylamides are set out in Table 1, above.
as §1, §2, §3, §4
The model thiol in Example 1 is glutathione (GSH). Hits were defined as fragments where kCdk2/kGSH>5.8 (empirically determined as 3 standard deviations over the mean).

Cdk2(H71C) (C177A) = target: T7, Cdk2(H71C) (C177A) (Homo sapiens, UniProt P24941, C177A/H71C); test: Kinetic thiol consumption assay with Cdk2 mutant H71C; type: binding; set-up: key to Rate enhancement, Cdk2 H71C: rate constant with Cdk2 ÷ rate constant with model thiol (fold); details: additional mutation C177A; for Rate constant with Cdk2 H71C: Protein: Cdk2, cysteine position H71C, in h^-1
T7 construct: poly-histidine; made in house; host or cells: E. coli
Procedure: as §1, §2, §3, §4, §5, §6

[2] = target: T8, human cyclin-dependent kinase 2 (Cdk2) (Homo sapiens, UniProt P24941); test: Kinetic thiol consumption assay with wild type Cdk2 (C177); type: binding; set-up: key to Rate enhancement, Cdk2 WT: k(Cdk2) divided by k(model thiol); Rate constant with Cdk2 (k(Cdk2)): unit not given here; details: for Rate enhancement, Cdk2 WT: no additional mutations; for Rate constant with Cdk2 WT: Protein: Cdk2, cysteine position WT, in h^-1; for Rate constant with Cdk2 (k(Cdk2)): 500 μM ligand, 5 μM thiol, phosphate buffer pH 8; for k(Cdk2)/k(GSH) rate enhancement: model thiol glutathione
T8 construct: poly-histidine; made in house; host or cells: E. coli
Procedure: as §7, §1, §2, §3, §4

Structure (SMILES)	Rate enhancement, Cdk2 S276C (Cdk2(S276C) (C177A))	Rate constant with Cdk2 S276C (Cdk2(S276C) (C177A))	Rate enhancement, Cdk2 N272 (Cdk2(N272C) (C177A))	Rate constant with Cdk2 N272C (Cdk2(N272C) (C177A))	Rate enhancement, Cdk2 S181C (Cdk2(S181C) (C177A))	Rate constant with Cdk2 S181C (Cdk2(S181C) (C177A))	Rate enhancement, Cdk2 F80C (Cdk2(C177A, F80C))	Rate constant with Cdk2 F80C (Cdk2(C177A, F80C))	Rate enhancement, Cdk2 R122C (Cdk2(R122C) (C177A))	Rate constant with Cdk2 R122C (Cdk2(R122C) (C177A))	Rate enhancement, Cdk2 T182C (Cdk2(T182C) (C177A))	Rate constant with Cdk2 T182C (Cdk2(T182C) (C177A))	Rate constant with Glutathione [1]	Rate enhancement, Cdk2 H71C (Cdk2(H71C) (C177A))	Rate constant with Cdk2 H71C (Cdk2(H71C) (C177A))	Rate enhancement, Cdk2 WT [2]	Rate constant with Cdk2 WT [2]	Rate constant with glutathione (k(GSH)) [1]	Rate constant with Cdk2 (k(Cdk2)) [2]	k(Cdk2)/k(GSH) rate enhancement [2]
C=CC(=O)N1CCn2c(C(=O)NC3CC3)ccc2C1C (centres unmarked) [CA-040/230]	0.7654	0.03282	3.076	0.1319	0.247	0.01059	0.3102	0.0133	0.285	0.01222	1.268	0.05436	0.04288	0.7334	0.03145	0.6915	0.02965	–	–	–
C=CC(=O)N(CC(=O)N1CCCC1)CC1CCCO1 (centres unmarked) [CA-080/239]	0.2885	0.003474	0.2756	0.003318	0.1377	0.001658	0.08364	0.001007	0.173	0.002083	0.9651	0.01162	0.01204	0	–	0.2317	0.00279	–	–	–
C=CC(=O)N(C1CC1)C1CCCCC1C1CCCCC1 (centres unmarked) [CA-081/240]	7.411	0.01732	3.276	0.007657	9.936	0.02322	4.621	0.0108	0.7099	0.001659	8.314	0.01943	0.002337	0.9042	0.002113	7.599	0.01776	–	–	–
C=CC(=O)N1CCCC1CC1CC2CCC1C2 (centres unmarked) [CA-087]	0.7322	0.006194	0.3045	0.002576	0.6457	0.005463	0.4785	0.004048	0.319	0.002699	6.465	0.05469	0.00846	35.53	0.3006	1.059	0.00896	0.0051	0.00508	0.9957
C=CC(=O)N1CCN(Cc2noc(C3CC3)n2)CC1 [CA-091]	0.9396	0.007277	0.3769	0.002919	1.139	0.008821	0.1028	0.0007964	0.6918	0.005358	2.003	0.01551	0.007745	0.1944	0.001506	0.2968	0.002299	0.00525	0.0023	0.4376
C=CC(=O)N1CCCCCC1C/C=C/c1ccccc1 (centres unmarked) [CA-096/146]	1.276	0.01436	0.8907	0.01002	12.97	0.1459	1.641	0.01846	0.7142	0.008035	10.32	0.1161	0.01125	0.8889	0.01	0.3023	0.003401	–	–	–
